Patent publication US3963711A, “Cyanomethyl sulfinyl- and sulfonyl-acetamido cephalosporins” (SmithKline Corporation, priority 1975, dated 1976)
≈ marks a conversion by molar mass, not a printed value.

What was measured:
Format in all cases: cell-based
S. aureus HH 127 = experiment: MIC by standard agar inclusion method, S. aureus HH 127; conditions: Staphylococcus aureus, HH127
S. aureus SK 23390 = experiment: MIC by standard agar inclusion method, S. aureus SK 23390; conditions: Staphylococcus aureus, SK23390
S. aureus Villaluz = experiment: MIC by standard agar inclusion method, S. aureus Villaluz; conditions: Staphylococcus aureus
Strep. faecalis HH 34358 = experiment: MIC by standard agar inclusion method, Strep. faecalis HH 34358; conditions: Enterococcus faecalis, HH34358
E. Coli SK 12140 = experiment: MIC by standard agar inclusion method, E. Coli SK 12140; conditions: Escherichia coli
E. Coli HH 33779 = experiment: MIC by standard agar inclusion method, E. Coli HH 33779; conditions: Escherichia coli
Kleb. pneumo. SK 4200 = experiment: MIC by standard agar inclusion method, Kleb. pneumo. SK 4200
Kleb. pneumo. SK 1200 = experiment: MIC by standard agar inclusion method, Kleb. pneumo. SK 1200
Salmonella ATCC 12176 = experiment: MIC by standard agar inclusion method, Salmonella ATCC 12176; conditions: ATCC12176
Shigella paradysentiae = experiment: MIC by standard agar inclusion method, Shigella paradysentiae
Pseudo. aeruginosa HH63 = experiment: MIC by standard agar inclusion method, Pseudo. aeruginosa HH63; conditions: Pseudomonas aeruginosa
[1] = tested on: Serratia marc. ATCC 13880; experiment: MIC by standard agar inclusion method, Serratia marc. ATCC 13880; conditions: ATCC13880
[2] = tested on: Entero. aerogenes ATCC 13048; experiment: MIC by standard agar inclusion method, Entero. aerogenes ATCC 13048; conditions: Klebsiella aerogenes, ATCC13048

Row | Compound | MIC (S. aureus HH 127) | MIC (S. aureus SK 23390) | MIC (S. aureus Villaluz) | MIC (Strep. faecalis HH 34358) | MIC (E. Coli SK 12140) | MIC (E. Coli HH 33779) | MIC (Kleb. pneumo. SK 4200) | MIC (Kleb. pneumo. SK 1200) | MIC (Salmonella ATCC 12176) | MIC (Shigella paradysentiae) | MIC (Pseudo. aeruginosa HH63) | MIC [1] | MIC [2]
1 | Cc1nnc(SCC2=C(C(=O)O)N3C(=O)C(NC(=O)CSCC#N)[C@H]3SC2)s1 (stereo partly drawn) [Compound 21436, 7-Cyanomethylmercaptoacetamido-3-(5-methyl-1,3,4-thiadiazol-2-ylthiomethyl)-3-cephem-4-carboxylic acid] | 0.2 µg/mL (≈ 0.437 µM) | 0.1 µg/mL (≈ 0.219 µM) | 25 µg/mL (≈ 54.6 µM) | 6.3 µg/mL (≈ 13.8 µM) | 1.6 µg/mL (≈ 3.5 µM) | 6.3 µg/mL (≈ 13.8 µM) | 1.6 µg/mL (≈ 3.5 µM) | 0.8 µg/mL (≈ 1.75 µM) | 1.6 µg/mL (≈ 3.5 µM) | 1.6 µg/mL (≈ 3.5 µM) | > 200 µg/mL | > 200 µg/mL | > 200 µg/mL
2 | CC(=O)OCC1=C(C(=O)O)N2C(=O)C(NC(=O)CS(=O)(=O)CC#N)C2SC1 (stereo not drawn) [Compound 90246, 7-cyanomethylsulfonylacetamidocephalosporanic acid] | 1.6 µg/mL (≈ 3.83 µM) | 1.6 µg/mL (≈ 3.83 µM) | 25 µg/mL (≈ 59.9 µM) | 50 µg/mL (≈ 120 µM) | 6.3 µg/mL (≈ 15.1 µM) | 25 µg/mL (≈ 59.9 µM) | 25 µg/mL (≈ 59.9 µM) | 6.3 µg/mL (≈ 15.1 µM) | 3.1 µg/mL (≈ 7.43 µM) | 6.3 µg/mL (≈ 15.1 µM) | > 200 µg/mL | > 200 µg/mL | 50 µg/mL (≈ 120 µM)
3 | Cn1nnnc1SCC1=C(C(=O)O)N2C(=O)C(NC(=O)CSCC#N)[C@H]2SC1 (stereo partly drawn) [Compound 94436, 7-Cyanomethylmercaptoacetamido-3-(1-methyltetrazol-5-ylthiomethyl)-3-cephem-4-carboxylic acid] | 0.4 µg/mL (≈ 0.906 µM) | 0.4 µg/mL (≈ 0.906 µM) | 12.5 µg/mL (≈ 28.3 µM) | 50 µg/mL (≈ 113 µM) | 0.8 µg/mL (≈ 1.81 µM) | 1.6 µg/mL (≈ 3.62 µM) | 1.6 µg/mL (≈ 3.62 µM) | 1.6 µg/mL (≈ 3.62 µM) | 0.4 µg/mL (≈ 0.906 µM) | 0.8 µg/mL (≈ 1.81 µM) | > 200 µg/mL | > 200 µg/mL | 12.5 µg/mL (≈ 28.3 µM)
4 | CC(=O)OCC1=C(C(=O)O)N2C(=O)C(NC(=O)CSCC#N)C2SC1 (stereo not drawn) [Compound 79336, 7-Cyanomethylmercaptoacetamidocephalosporanic acid] | 0.2 µg/mL (≈ 0.519 µM) | 0.8 µg/mL (≈ 2.08 µM) | 25 µg/mL (≈ 64.9 µM) | 12.5 µg/mL (≈ 32.4 µM) | 6.3 µg/mL (≈ 16.3 µM) | 12.5 µg/mL (≈ 32.4 µM) | 1.6 µg/mL (≈ 4.15 µM) | 6.3 µg/mL (≈ 16.3 µM) | 1.6 µg/mL (≈ 4.15 µM) | 6.3 µg/mL (≈ 16.3 µM) | > 200 µg/mL | > 200 µg/mL | > 200 µg/mL
5 | Cc1nnc(SCC2=C(C(=O)O)N3C(=O)C(NC(=O)CS(=O)(=O)CC#N)[C@H]3SC2)s1 (stereo partly drawn) [Compound 09346, 7-Cyanomethylsulfonylacetamido-3-(5-methyl-1,3,4-thiadiazol-2-ylthiomethyl)-3-cephem-4-carboxylic acid] | 1.6 µg/mL (≈ 3.27 µM) | 1.6 µg/mL (≈ 3.27 µM) | 100 µg/mL (≈ 204 µM) | 25 µg/mL (≈ 51.1 µM) | 3.1 µg/mL (≈ 6.33 µM) | 6.3 µg/mL (≈ 12.9 µM) | 6.3 µg/mL (≈ 12.9 µM) | 3.1 µg/mL (≈ 6.33 µM) | 6.3 µg/mL (≈ 12.9 µM) | 3.1 µg/mL (≈ 6.33 µM) | > 200 µg/mL | > 200 µg/mL | 12.5 µg/mL (≈ 25.5 µM)
6 | Cn1nnnc1SCC1=C(C(=O)O)N2C(=O)C(NC(=O)CS(=O)(=O)CC#N)[C@H]2SC1 (stereo partly drawn) [Compound 72346, 7-Cyanomethylsulfonylacetamido-3-(1-methyltetrazol-5-ylthiomethyl)-3-cephem-4-carboxylic acid] | 1.6 µg/mL (≈ 3.38 µM) | 1.6 µg/mL (≈ 3.38 µM) | 25 µg/mL (≈ 52.8 µM) | 50 µg/mL (≈ 106 µM) | 1.6 µg/mL (≈ 3.38 µM) | 3.1 µg/mL (≈ 6.55 µM) | 1.6 µg/mL (≈ 3.38 µM) | 1.6 µg/mL (≈ 3.38 µM) | 1.6 µg/mL (≈ 3.38 µM) | 1.6 µg/mL (≈ 3.38 µM) | > 200 µg/mL | > 200 µg/mL | 6.3 µg/mL (≈ 13.3 µM)
